Measurements as given in ChEMBL document CHEMBL1128774, “Substrate specificity of farnesyl diphosphate synthase from Bacillus stearothermophilus” (Bioorg Med Chem Lett, 1995).
The source made the active and inactive calls. No cut-off for these calls is given here.

Assays:
[1] = system: Farnesyl diphosphate synthase (Geobacillus stearothermophilus); assay: Compound was tested for apparent Km values of Farnesyl diphosphate synthase from Bacteria; Active
[2] = system: Farnesyl diphosphate synthase (Sus scrofa); assay: Compound was tested for apparent Km values of Farnesyl diphosphate synthase from Pig liver; Active

For `C/C(=C\COP(=O)(O)OP(=O)(O)O)CCCO`, which Activity [1] is on record?
Its Activity is “Active”.

What about the Activity [2] of the same compound?
The Activity was “Active”.
